The experiment has as its system aged rats. The experiment is described as follows: Hole-board test, spatial reference memory. Type of experiment: in vivo, rat. The text has this: In order to examine the effect of (S)-MK-26 on hippocampus-dependent spatial reference memory, we used the standardized hole-board test (animal experiments conducted under BMBWF-66.009/235/V/3b/2018 regulations) following published procedures with minor modifications. In brief, food restriction and controlled body weight loss with it (until steadily reaching 85% of the average body weight sustained during ad libitum feeding) was initially imposed for this experimental study as cognitive/behavioral incentive. A black plastic hole-board maze (1 m^2 base) with 16 symmetrically distributed holes located at the floor (7 cm in diameter and depth) and walls enriched with spatial cues was used (See Figure 4). Accessory distal cues were also visible in the walls of the experimental room. Dustless precision food pellets (45 mg, Bioserv®, Flemington, NJ, USA) were placed as motivational baits in four randomly designated holes, unchanged throughout the test. Several inaccessible pellets were also placed all across the entire area immediately below all the holes of the board maze in order to induce a uniform distribution of the food smell and thus preventing the acute orientating response of the sense of smell from prevailing over the evocation of spatial memories associated with the location of accessible food. […] The behavioral experiments were conducted in a noise-isolated room; all sessions were monitored by a distal overhead conventional digital camera and behavioral data digitalized using the ANY-Maze video tracking system (Stoelting Europe, 8-Terenure Place, Terenure, Dublin, D6W Y006, Ireland). Spatial memory performance was assessed from the number of errors made by the animal, that is, the number of times the animals visit unbaited holes (reference memory). […] Thus, from these measurements, an RMI value of “1” would constitute quantifiable indicator of optimal reference memory, with a performance without empty-hole visiting mistakes. […]

Take `[O-][S@@+](Cc1cncs1)C(c1cccc(Cl)c1)c1cccc(Cl)c1` [(S)-MK-26, (S)-5-(((B(3-chlorophenyl)methyl)sulphinyl)methyl)thiazole]: for the setting “10 mg/kg i.p. daily, vs Kolliphor”, the “spatial reference memory (reference memory index)” value is “slight and transitory—yet statistically significant—enhancement of spatial reference memory”. Also, the “exploratory activity (distance travelled) during H3 habituation session” value (10 mg/kg i.p., p = 0.0053) is on record as “induced an increase in ecology-like exploratory activity”. Besides, the “number of hole dips” value (10 mg/kg i.p., vs Kolliphor) is recorded as “No differences”.

The record behind these values is PMC9312958, “A Novel and Selective Dopamine Transporter Inhibitor, (S)-MK-26, Promotes Hippocampal Synaptic Plasticity and Restores Effort-Related Motivational Dysfunctions” (Biomolecules, 2022).
